Test results taken from article PMC9863266, “Preclinical Studies and Drug Combination of Low-Cost Molecules for Chagas Disease” (Pharmaceuticals, 2022).

Columns and labels:
[1] = test system: epimastigote form of T. cruzi, Tulahuen 2 strain; test: Mechanism of death by flow cytometry, AV/IP labeling; format: cell-based; conditions: 20 × IC50
Experimental: Parasites were immediately analyzed on an Accuri C6 flow cytometer (BD Bioscience, Franklin Lakes, New Jersey, U.S.). […] Ten thousand events were analyzed for each of the two independent experiments. Data were analyzed using BD CSampler software (BD Bioscience). Untreated parasites were used as a control. For the positive control of apoptosis and necrosis, the parasites were treated with hydrogen peroxide (H2O2) 50 µM and 100 µM for 2.5 h, respectively. These single-spot controls were used to calculate color compensation for flow cytometry.

Leishmania infantum = test system: Leishmania infantum; parameters: method as in earlier work; conditions: promastigotes; read-out: In vitro anti-Leishmania infantum (visceral) activity (IC50); cited from earlier work
[2] = test system: epimastigote form of T. cruzi, Tulahuen 2 strain; test: Viability by flow cytometry, CA-AM/IP labeling; format: cell-based; conditions: 20 × IC50
Experimental: Additionally, we evaluated the viability of treated parasites by flow cytometry analysis after incubation with methylated acetoxycalcein (CA-AM) and propidium iodide (IP). […] Since the methodology used to determine the IC50 is based on 5 days of incubation, doses 20 times higher were used to analyze cell viability in shorter times. Similarly, these compounds’ concentrations were used to determine the death mechanism involved at the aforementioned times.
Viability studies of parasites by flow cytometry: The feasibility studies were carried out by evaluating the esterase activity of the parasites using Acetoxymethylated Calcein (CA-AM) and IP (Thermo Fisher Scientific). […] Fluorescence intensity for 10,000 events was acquired from two independent experiments and data were analyzed using BD CSampler software (BD Bioscience).

[3] = Stability with microsomal and cytosolic fractions of rat hepatocytes; format: in vitro ADME
Experimental: The qualitative analysis of the in vitro metabolization by the rat hepatocyte microsomal (MF) and cytosolic (CF) fractions of compounds 793, 1019, and 1018 was performed using chromatographic techniques (reverse phase high performance liquid chromatography and thin-layer chromatography). For this, the metabolization was monitored at different times (0, 30, 60 min and 4 h). In both MF and CF of hepatocytes treated with compounds 793 and 1019, it was observed that after one hour, more than 50% (t1/2 < 60 min) of the compounds were metabolized to more hydrophilic compounds. For these compounds, it was observed the appearance of new products of metabolization over time. […] Regarding the structure and metabolism, the heterocycles (thienyl vs. furyl) could be responsible for these different stabilities: the furyl ring would metabolize to an open cycle version, making this system more labile in front of the hepatic metabolization.
For the determination of the stability in the different fractions, cytosolic and microsomal, rat hepatocytes protein fractions were purchased by Sigma® and used according to the previously reported protocol. […] The final concentration of the molecules in the aqueous medium was […] and prepared from stock in DMSO of 40 mM. The solutions were homogenized and incubated at 37 °C for 10 min, 30 min, 1 h, 2 h, 3 h, and 4 h (by TLC). Incubation at 37 °C was performed in a reaction volume of 1 mL containing 2.5 µL of 30 mM magnesium chloride (MgCl2); 2.5 µL of 40 mM nicotinamide […] dinucleotide phosphate (NADP^+); 5 µL of 350 mM glucose 6-phosphate (Glu6P); 5 µL of glucose 6-phosphate dehydrogenase (Glu6PD) 50 U/mL, 5 µL of the stock of 40 mM compounds and the volume of the phosphate buffer (pH = 7) was defined so that cytosolic (CF) and microsomal (MF) fraction present a final protein concentration of 0.1 mg/mL. After that, the stability of compounds 793, 1018, and 1019 in the CF and MF of rat hepatocytes was evaluated by HPLC at different times: 0, 30, and 60 min. […]

[4] = test system: trypomastigote form of T. cruzi (strain Y); test: Trypanosomicidal activity in trypomastigotes; format: cell-based; conditions: Trypanosoma cruzi, 24 h, 4 °C, infected mouse blood
Experimental: The experiment was performed on infected, three-month-old, Balb/c mice. Seven days post-infection, when in a parasitemia peak (>1.0 × 10^6 parasites /mL), the blood of the living (anesthetized) mouse was extracted from the aorta or eye (1 mL per mouse), and citrate was used as an anticoagulant, then seeded in a 96-well plate with a final volume of 100 μL (90 μL of blood + 10 μL from a stock solution of the compound containing 10% DMSO). It was left at 4 °C, 24 h, then 5 μL of each sample was used to count trypomastigotes using a 40x optical microscope (MO) (50-field method). The plate fill was performed by homogenizing the well before filling each well (very slowly), and it was performed in triplicate or quadruplicate to obtain the IC50 values of each compound.

[5] = test system: Leishmania spp (cutaneous) promastigotes; parameters: method as in earlier work; conditions: read-out: In vitro anti-Leishmania spp (cutaneous) activity (IC50); cited from earlier work
[6] = target: triosephosphate isomerase recombinant enzyme of T. cruzi (TcTIM); conditions: cited from earlier work
[7] = test system: CL Brener clone of T. cruzi; parameters: method as in PMID 26492824; conditions: 192 µmoles/kg/day; cited from earlier work

For O=C(/C=C/C=C/c1ccco1)/C=C/C=C/c1ccco1 [Compound 793], the “AV/IP labeling Q1-UR (double AV+/IP+ labeling)” value ([1]; 6 h) is given as 74%, the “AV/IP labeling Q1-UR (double AV+/IP+ labeling)” value ([1]; 24 h) is given as 84% and the IC50 (Leishmania infantum) is given as 31 µM. The “CA-AM/IP labeling Q1-UR (CA-AM+/IP+ double-labeled parasites)” value ([2]; 6 h) was 82%, the “CA-AM/IP labeling Q1-UR (CA-AM+/IP+ double-labeled parasites)” value ([2]; 24 h) was 98% and the “In vitro metabolic stability (qualitative)” value ([3]; MF and CF of rat hepatocytes, up to 4 h) was “short half-life”. For the same compound, the “Compound metabolized to more hydrophilic compounds” value ([3]; after one hour, both MF and CF) was “more than 50%”, the half-life at 400 µM ([3]; pH 7, both MF and CF of rat hepatocytes) was < 1 h and the IC50 [4] was 25 ± 5 µM. For the same compound, the IC50 [5] was 36 µM, the IC50 [6] was 3 µM and the “Days Post-Infection of the First Parasitemia Peak” value [7] was 22 days. The “Reduction in the Parasitemia Peak (%)” value [7] was 50% and the “Survival (%)” value [7] was 83%.
